The values that follow come from article PMC4674085, “Towards Prebiotic Catalytic Amyloids Using High Throughput Screening” (PLoS ONE, 2015).

Series [1] is described as follows: Plate reader 4NPA hydrolysis kinetics of purified peptide amyloids at pH 7.3. Type of series: biochemical. As to conditions: for k cat/K M / K M / k cat / k cat/K M = k 2 from linear fit to v 0 = [E]0 k 2[S]: 4NPA hydrolysis; for k cat/K M / K M / k cat: pH 7.3 HEPES with zinc(II), 20 μM purified peptide; for k cat/K M: 0.1-1.0 mM 4NPA, 1% CH3CN, A400, Michaelis-Menten fit, triplicate (duplicate for 8, 27, 34, 35); for k cat/K M / k cat: per monomer peptide; for K M / k cat: Michaelis-Menten fit; for k cat/K M = k 2 from linear fit to v 0 = [E]0 k 2[S]: pH 7.3, plate reader A400, triplicate (36 without replicates). As to the method: The reaction buffer consisted of the same buffer as the fibrillization buffer without ZnCl2 and with 1.33 mM 4NPA prepared from a 100 mM stock in CH3CN. The samples of the amyloid library were mixed 1:3 with the reaction buffer yielding 40 μM peptide and, when present 250 μM zinc(II). The absorbance measurements were performed in a BMG Pherastar platereader with a 400 nm band-pass filter (10 nm bandwidth) in 96-well Nunclon Delta surface plates or 384-well Greiner Bio-One non-bind black μclear plates.
The kinetics assays performed on the purified peptides were prepared similarly except that the peptide concentration was 20 μM in the reaction. Furthermore, the various substrate concentrations and replicate samples were randomly distributed over the plate to minimize systematic errors. Various 4NPA concentrations (i.e. 0.1 mM, 0.2 mM, 0.4 mM, 0.6 mM, 1.0 mM) were added from a 100 times stock so that the final CH3CN concentration was always 1%. The linear part of the hydrolysis activity was fit with an extinction coefficient of ε = 9700 M^-1cm^-1 and corrected for the background reaction rate of buffer alone (v bg = 5.0 × 10^-6 Ms^-1) to obtain the initial reaction rate v 0. The average of the initial reaction rates at each substrate concentration were then fit to the Michaelis-Menten type kinetics to obtain k cat, K M and k cat/K M always calculated per monomer peptide. The background reaction rate was obtained similarly using 5 replicates.

The nature of series [2]: Transmission electron microscopy (TEM) of fibrils. Set-up: key: +: ﬁbrils present; −: absent in EM micrographs. As to conditions: uranyl acetate stain. Format: physicochemical. As to the method:
The samples of the amyloid library (50 mM HEPES pH 7.3 or 50 mM NaOAc pH 4) were applied directly to glow-discharged carbon-coated grids, washed and then stained with uranyl acetate. Images were recorded on a Philips CM 12 electron microscope.
(§1) Table A and associated data: Biophysical characterization of library
(§2) Sequence ThT1 CD2 FTIR3 EM4 ThT CD FTIR EM X-ray5 […]
4. (+) ﬁbrils present or (−) absent in EM micrographs. […]

Series [3] can be described thus: ATR-FTIR, amide I peak of aggregates. Format: physicochemical. Set-up: key: indicates that no peak was observed within the typical range of stretching frequencies forβ-structure (between dashed lines at 1638 cm−1 and 1615 cm−1). As to conditions: air-dried pellet, crude peptide. The method, then:
Samples were prepared as for the CD measurements, but instead of re-suspending the samples after centrifugation, 3 μl of H2O were added to the pellet so that it could be placed onto the diamond ATR cell of a Bruker Alpha-p ATR-FTIR spectrometer followed by air-drying before measuring the spectra. Blank subtraction was performed with an empty cell (air) and all measurements were performed without the pressure applicator.
as §1, §2
(§3) 3. The peak position in amide I region is given in cm−1. […]

Series [4] is described as follows: Thioflavin T fluorescence (ThT). As to conditions: crude peptide fibrillized at 160 μM, mixed 10:1 with 50 μM ThT, ex 440 nm em 480 nm. Format: physicochemical. The method, then:
The samples of the amyloid library (50 mM HEPES pH 7.3 or 50 mM NaOAc pH 4) were mixed 10:1 with 50 μM ThT and the increase in fluorescence was measured in a 384-well plate in a BMG Pherastar platereader (ex: 440 nm em: 480 nm). The background signal from the peptides without ThT was subtracted from the one with the ThT present in the sample. Due to the large dynamic range of the signals among the many samples, the measurements were made at two different gain settings to ensure that all of the signals fell within the measureable range.
as §1
Sequence ThT1 CD2 FTIR3 EM4 ThT CD FTIR EM X-ray5
1. Fold increase in ThT ﬂuorescence over background. […]

Series [5] in a line: NMR-based 4NPA hydrolysis assay at pH 4.3. As to conditions: 4NPA hydrolysis by 1D-1H NMR, 50 mM d3-NaOAc pH 4.3, 2% d6-DMSO, 40 μM total purified peptide (mixture 20 μM each), 0.9 mM 4NPA, 25°C, over 15 days, first order fit, no zinc(II). Format: biochemical. As to the method: Purified peptides were solubilized in deuterated DMSO with 1% TFA at a concentration of 4 mM and subsequently diluted to 160 μM in 50 mM deuterated NaOAc buffer at pH 4.3. In the case of the peptide mixture fibrillization (12/21), each peptide was 80 μM. Fibrillization occurred over 5 days after which the sample was diluted to 40 μM total peptide in 50 mM buffer with 0.9 mM 4NPA (from a 90 mM stock solution in d6-DMSO) and a final concentration of d6-DMSO of 2%. From this reaction mixture 500 μl was transferred to a 5 mm NMR tube and measurements were performed in a 600 MHz Bruker NMR spectrometer equipped with a cryo-probe.
The hydrolysis kinetics were monitored in a continuous series of 1D-^1H experiments each consisting of 32 scans at 25°C and each requiring 17 min. In this manner, several time segments lasting between 8 and 17 hours were collected over a period of 15 days. Between measurements, the samples were kept at 25°C.
Data processing and peak integration was performed with Topspin3.2 (Bruker). Relevant peaks used for the analysis were the 4 aromatic protons of both 4NPA and of its product (p-nitrophenol) as well as the methyl groups of 4NPA and acetic acid. The ratio of the sum of integrals for the product protons to the sum of integrals for all protons was used to calculate the substrate concentration. […]

Series [6] is described as follows: X-ray fiber diffraction of aligned fibrils. Type of series: physicochemical. As to conditions: washed pellets dried between glass capillaries, room temperature. The method, then:
The samples were centrifuged, the pellet resuspended (ultrapure water or 10 mM NaOAc pH 4) and centrifuged again. The washed pellets were resuspended in a minimal amount of water and 4 μl of the suspension were pipetted between the melted ends of two glass capillaries, which were then left to dry overnight in a sealed petri dish. The dried material was placed in an X-ray beam (Rigaku MicroMax-007HF) at room temperature for a 20 min exposure and diffraction data was collected on a Mar345 image plate detector.
Table A and associated data: Biophysical characterization of library […]
1. Fold increase in ThT ﬂuorescence over background.
2. CD spectra classiﬁed as follows: (β+) has minimum near 217 nm, (β++) has minimum near 217 nm and a maximum near 197 nm, (−) signal too weak to interpret, (?) spectra not typical of any secondary […]
as §3
within the typical range of stretching frequencies forβ-structure (between dashed lines at 1638 cm−1 and […]
4. (+) ﬁbrils present or (−) absent in EM micrographs.
5. Diﬀraction images recorded for the aligned ﬁbrils of 5 diﬀerent peptides (see materials and methods).

A short description of series [7]: Aggregation at pH 4 from soluble material left after 100,000 g centrifugation. Type of series: physicochemical. As to conditions: 40 μM purified peptide, pH 4, soluble material in supernatant of 100,000 g centrifugation.
The nature of series [8]: Circular dichroism (CD), secondary structure of aggregates. Also noted: key: β+: has minimum near 217 nm; β++: has minimum near 217 nm and a maximum near 197 nm; −: signal too weak to interpret; ?: spectra not typical of any secondary structure. Type of series: physicochemical. The method, then:
The concept of creating an amyloid library out of a peptide library is only meaningful if the vast majority of the peptides actually form amyloids in at least one of the conditions tested. To establish the validity of our amyloid library we measured circular dichroism (CD), Fourier transform infrared spectroscopy (ATR-FTIR), as well as thioflavin T (ThT) fluorescence of peptides 1–33 at pH 7.3 (50 mM HEPES) and pH 4 (50 mM NaOAc) (see interactive Table A and associated data in S1 File). Based on the analysis of the CD and ATR-FTIR spectra (shown in the interactive Table A in S1 File) all the peptides formed β-structured aggregates in at least one condition. Most of the 33 peptides induced a significant increase in ThT fluorescence in at least one condition. […] The fibrils from a selection of the active peptides were aligned and analyzed by X-ray diffraction (Figures C and D in S1 File). In each case we observed the cross-β diffraction pattern typical of amyloid fibrils, although the degree of sample alignment varied. For two samples, 14 and 27, the difference in meridional and equatorial diffraction intensities was small but easily detected in a plot of the angular dependence of the intensity (Figure D in S1 File). The conclusion that can be drawn out of the multiple analysis techniques is that the 33 peptides that comprise the library are overwhelmingly prone to form fibril-like, β-structured aggregates. The cross-β diffraction of the tested aggregates would imply that they are more specifically all amyloidogenic.
CD measurements were carried out on a Jasco J815. Samples were prepared by centrifuging the amyloid library at 25,000 g for 10 min and then removing the supernatant. The pellets were resuspended at an approximate concentration of 100 μg/ml in 10 mM HEPES pH 7.3 (for mixtures from 50 mM HEPES) or 10 mM NaOAc pH 4 (for mixtures from 50 mM NaOAc), the suspensions were then treated with an ultrasonic probe for 5 s, upon which the solutions were placed in 1 mm cuvettes, diluted as necessary to maintain the detector voltage below 600 V and scanned from 260–190 nm at 50 nm/min, 1 nm band-pass, 2 second integration, averaged over 3 repetitions.
as §1, §2
2. […]

The mark [9] stands for this setting: pH 7.3, pellet (25,000 g, 10 min) resuspended ~100 μg/ml in 10 mM HEPES pH 7.3, crude peptide.
Setting [10] is: pH 4.0, pellet (25,000 g, 10 min) resuspended ~100 μg/ml in 10 mM NaOAc pH 4, crude peptide.

Peptide text beside a SMILES is read from it.

“Ac-IHIHIQI-NH2 [Peptide 34, Ac-IHIHIQI-CONH2, reference compound]”: in series [1], the “k cat/K M” value was 15.76 ± 0.96 M⁻¹ s⁻¹, the “K M” value is 1570 ± 290 µM and the k cat is 2.47±0.32 10^-2s^-1.

For the compound “Ac-YVSVSVHV-NH2 [Peptide 12, Ac-YVSVSVHV-CONH2]”, the “EM, fibrils in EM micrographs” value in series [2] (pH 4.0, 50 mM NaOAc) is given as “+”. Besides, the “FTIR peak position in amide I region” value in series [3] (pH 4.0 (50 mM NaOAc)) was found to be 1621 cm⁻¹; in series [3] (pH 7.3 (50 mM HEPES)), 1623 cm⁻¹. Moreover, the “ThT, fold increase in ThT fluorescence over background” value (“ThT, fold increase” for short) in series [4] (pH 4.0, 50 mM NaOAc) came out at 5 fold; in series [4] (pH 7.3, 50 mM HEPES), 183 fold. For the same compound, in series [5], the “k cat/K M” value was 6145.6±8.5 10^-6M^-1s^-1. Also, the “X-ray diffraction of aligned fibrils” value in series [6] is recorded as “cross-β”. The “aggregation behaviour at pH 4” value in series [7] is reported as “began to aggregate within minutes”. Besides, the CD spectrum class result in series [8] (setting [9]) is “β++”.

In the case of “Ac-YVHVSVHV-NH2 [Peptide 10, Ac-YVHVSVHV-CONH2]”, the “EM, fibrils in EM micrographs” value in series [2] (pH 7.3, 50 mM HEPES) was “+”. In addition, the “FTIR peak position in amide I region” value is “−” in series [3] (pH 4.0 (50 mM NaOAc)) and 1623 cm⁻¹ in series [3] (pH 7.3 (50 mM HEPES)). The “ThT, fold increase” value turned out to be 1 fold in series [4] (pH 4.0, 50 mM NaOAc) and 29 fold in series [4] (pH 7.3, 50 mM HEPES). In series [1], the k cat/K M = k 2 from linear fit to v 0 = [E]0 k 2[S] came out at 0.172 ± 0.003 M⁻¹ s⁻¹. Further, the values for the CD spectrum class result in series [8] (setting [10]) and in series [8] (setting [9]) were “−” and “β+”, respectively.

Turning to `c1c[nH]cn1` [Imidazole, reference compound], in series [1], the k cat/K M = k 2 from linear fit to v 0 = [E]0 k 2[S] amounted to 0.199 ± 0.008 M⁻¹ s⁻¹.

In turn, `CC(=O)N[C@@H](Cc1c[nH]cn1)C(=O)NCC(=O)N[C@@H](Cc1c[nH]cn1)C(N)=O` [Peptide 36, Ac-HGH-CONH2] (Ac-His-Gly-His-NH2) came in with a k cat/K M = k 2 from linear fit to v 0 = [E]0 k 2[S] in series [1] of 0.041 ± 0.005 M⁻¹ s⁻¹. The “zinc(II) dependence of 4NPA hydrolysis activity” value in series [1] (pH 7.3) is listed as “not zinc(II)-dependent”.

Take “Ac-YVHVAVHV-NH2 [Peptide 28, Ac-YVHVAVHV-CONH2]”: the “EM, fibrils in EM micrographs” value in series [2] (pH 7.3, 50 mM HEPES) is “+”. Also, the “FTIR peak position in amide I region” value in series [3] (pH 4.0 (50 mM NaOAc)) was “−”; in series [3] (pH 7.3 (50 mM HEPES)), 1624 cm⁻¹. Besides, the “ThT, fold increase” value in series [4] (pH 4.0, 50 mM NaOAc) stood at 1 fold; in series [4] (pH 7.3, 50 mM HEPES), 114 fold. In series [1], the “k cat/K M” value was found to be 0.215 ± 0.007 M⁻¹ s⁻¹. For the same compound, the “K M” value in series [1] amounted to 1950 ± 230 µM. Besides, in series [1], the k cat is recorded as 0.042±0.004 10^-2s^-1. The CD spectrum class result in series [8] (setting [10]) is on record as “−”; in series [8] (setting [9]), “β+”.
